In patent publication US9073918B2, “Pyrazolo[4,3-b]pyridine-7-amine inhibitors of ALK5” (Takeda Pharmaceutical Company Limited, priority 2010, dated 2015):
Where a name gives a salt, the structure may show the parent alone.

Assays:
TGF-β R1 ALK5 = molecular target: T1, TGF-β R1 ALK5 (Homo sapiens, UniProt P36897); experiment: In vitro inhibition of ALK5 (LanthaScreen activity assay, TR-FRET); format: biochemical
T1 construct: purchased Invitrogen PV5837
T1 sequence (P36897 34-503): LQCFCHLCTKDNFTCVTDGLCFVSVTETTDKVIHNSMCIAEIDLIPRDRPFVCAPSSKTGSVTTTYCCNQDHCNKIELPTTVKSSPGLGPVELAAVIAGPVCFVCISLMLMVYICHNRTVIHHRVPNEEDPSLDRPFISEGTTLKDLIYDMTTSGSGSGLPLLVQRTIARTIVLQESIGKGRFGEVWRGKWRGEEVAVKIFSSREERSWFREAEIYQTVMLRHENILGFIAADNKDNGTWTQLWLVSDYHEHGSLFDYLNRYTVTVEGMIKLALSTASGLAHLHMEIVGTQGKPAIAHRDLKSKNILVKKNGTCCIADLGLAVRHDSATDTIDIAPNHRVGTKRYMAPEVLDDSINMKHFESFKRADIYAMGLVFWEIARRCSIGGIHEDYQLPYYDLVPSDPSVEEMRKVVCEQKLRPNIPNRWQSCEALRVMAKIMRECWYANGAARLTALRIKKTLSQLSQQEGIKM

cellular TGF-β R1 ALK5 = molecular target: T2, cellular TGF-β R1 ALK5 (Homo sapiens, UniProt P36897); experiment: Cellular inhibition of ALK5 (CellSensor SBE-bla HEK 293T beta-lactamase reporter); format: cell-based; settings: cellular inhibition of ALK5, SBE-bla HEK 293T cells, TGFb-1 stimulated 5 hours; average where measured in multiple experiments
T2 construct: host or cells: CellSensor SBE-bla HEK 293T
T2 sequence (P36897 34-503): T1 sequence (P36897 34-503)
How it was run: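 SBE-bla HEK 293T beta-lactamase reporter cells pre-incubated 1 h at 37 °C with 2.5-fold serially diluted compounds (0.5% DMSO), then stimulated 5 h with TGFb-1 (100 ng/mL stock).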

Row | melting point | IC50 (TGF-β R1 ALK5) | IC50 (cellular TGF-β R1 ALK5) | pIC50 (TGF-β R1 ALK5; in vitro inhibition of ALK5, 15 nM ALK5, 2 μM ATP, Fluorescein-SMAD3 peptide, 90 minutes at room temperature, average where measured in multiple experiments) | pIC50 (cellular TGF-β R1 ALK5) | Compound
1 | 182 to 184 °C | – | – | – | – | Cc1ccc(F)c(-c2cc(Nc3ccnc4cn(C[C@H](O)CO)nc34)ccn2)n1 (as salt: HCl) [Example 69, (S)-3-(7-(3′-fluoro-6′-methyl-2,2′-bipyridin-4-ylamino)-2H-pyrazolo[4,3-b]pyridin-2-yl)propane-1,2-diol]
2 | 256 °C | – | – | – | – | CCNC(=O)n1ncc2nccc(Nc3ccnc(-c4cc(Cl)ccc4F)c3)c21 (as salt: TFA) [Example 29, 7-(2-(5-chloro-2-fluorophenyl)pyridin-4-ylamino)-N-ethyl-1H-pyrazolo[4,3-b]pyridine-1-carboxamide]
3 | 256 °C | – | – | – | – | CNC(=O)n1ncc2nccc(Nc3ccnc(-c4cc(Cl)ccc4F)c3)c21 (as salt: TFA) [Example 32, 7-(2-(5-chloro-2-fluorophenyl)pyridin-4-ylamino)-N-methyl-1H-pyrazolo[4,3-b]pyridine-1-carboxamide]
4 | 293 °C | – | – | – | – | CN(C)C(=O)Cn1ncc2nccc(Nc3ccnc(-c4cc(Cl)ccc4F)c3)c21 (as salt: TFA) [Example 38, 2-(7-(2-(5-chloro-2-fluorophenyl)pyridin-4-ylamino)-1H-pyrazolo[4,3-b]pyridin-1-yl)-N,N-dimethylacetamide]
5 | 131 to 132 °C | – | – | – | – | NC(=O)Cn1ncc2nccc(Nc3ccnc(-c4cc(Cl)ccc4F)c3)c21 (as salt: TFA) [Example 44, 2-(7-(2-(5-chloro-2-fluorophenyl)pyridin-4-ylamino)-1H-pyrazolo[4,3-b]pyridin-1-yl)acetamide]
6 | 135 °C | – | – | – | – | CNC(=O)n1ncc2nccc(Nc3cc(-c4cc(Cl)ccc4F)ncc3C)c21 (as salt: TFA) [Example 52, 7-(2-(5-chloro-2-fluorophenyl)-5-methylpyridin-4-ylamino)-N-methyl-1H-pyrazolo[4,3-b]pyridine-1-carboxamide]
7 | 292 °C | – | – | – | – | Cc1cnc(-c2cc(Cl)ccc2F)cc1Nc1ccnc2cnn(C(=O)NC(C)C)c12 (as salt: TFA) [Example 54, 7-(2-(5-chloro-2-fluorophenyl)-5-methylpyridin-4-ylamino)-N-isopropyl-1H-pyrazolo[4,3-b]pyridine-1-carboxamide]
8 | – | 7.94 nM | 15.8 nM | – | – | CCn1cc2ncc(F)c(Nc3cc(-c4nc(C)ccc4F)ncc3C)c2n1 [Example 138, 2-ethyl-6-fluoro-N-(3′-fluoro-5,6′-dimethyl-2,2′-bipyridin-4-yl)-2H-pyrazolo[4,3-b]pyridin-7-amine]
9 | – | 25.1 nM | 126 nM | – | – | CCn1ncc2ncc(F)c(Nc3cc(-c4nc(C)ccc4F)ncc3C)c21 [Example 139, 1-ethyl-6-fluoro-N-(3′-fluoro-5,6′-dimethyl-2,2′-bipyridin-4-yl)-1H-pyrazolo[4,3-b]pyridin-7-amine]
10 | – | 7.94 nM | 50.1 nM | – | – | Cc1ccc(F)c(-c2cc(Nc3ccnc4cn([C@H]5CCOC5)nc34)c(C)cn2)n1 [Example 140, (S)—N-(3′-fluoro-5,6′-dimethyl-2,2′-bipyridin-4-yl)-2-(tetrahydrofuran-3-yl)-2H-pyrazolo[4,3-b]pyridin-7-amine]
11 | – | 25.1 nM | 158 nM | – | – | Cc1ccc(F)c(-c2cc(Nc3ccnc4cnn([C@H]5CCOC5)c34)c(C)cn2)n1 [Example 141, (S)—N-(3′-fluoro-5,6′-dimethyl-2,2′-bipyridin-4-yl)-1-(tetrahydrofuran-3-yl)-1H-pyrazolo[4,3-b]pyridin-7-amine]
12 | – | 25.1 nM | 158 nM | – | – | Cc1cnc(-c2cc(F)ccc2F)cc1Nc1ccnc2cn(CCC(C)(C)O)nc12 [Example 142, 4-(7-(2-(2,5-difluorophenyl)-5-methylpyridin-4-ylamino)-2H-pyrazolo[4,3-b]pyridin-2-yl)-2-methylbutan-2-ol]
13 | – | 20 nM | 126 nM | – | – | Cc1cnc(-c2cc(F)ccc2F)cc1Nc1ccnc2cn(CC(C)O)nc12 (stereo not drawn) [Example 143, 1-(7-(2-(2,5-difluorophenyl)-5-methylpyridin-4-ylamino)-2H-pyrazolo[4,3-b]pyridin-2-yl)propan-2-ol]
14 | – | 2.51 nM | 20 nM | – | – | Cc1cnc(-c2cc(F)ccc2F)cc1Nc1ccnc2cnn(CC(C)O)c12 (stereo not drawn) [Example 144, 1-(7-(2-(2,5-difluorophenyl)-5-methylpyridin-4-ylamino)-1H-pyrazolo[4,3-b]pyridin-1-yl)propan-2-ol]
15 | – | 15.8 nM | 126 nM | – | – | CNC(=O)Cn1ncc2nccc(Nc3cc(-c4nc(C)ccc4F)ncc3C)c21 [Example 145, 2-(7-(3′-fluoro-5,6′-dimethyl-2,2′-bipyridin-4-ylamino)-1H-pyrazolo[4,3-b]pyridin-1-yl)-N-methylacetamide]
16 | – | 31.6 nM | 501 nM | – | – | CNC(=O)Cn1cc2nccc(Nc3cc(-c4nc(C)ccc4F)ncc3C)c2n1 [Example 146, 2-(7-(3′-fluoro-5,6′-dimethyl-2,2′-bipyridin-4-ylamino)-2H-pyrazolo[4,3-b]pyridin-2-yl)-N-methylacetamide]
17 | – | 31.6 nM | 200 nM | – | – | CNC(=O)Cn1cc2ncc(F)c(Nc3cc(-c4nc(C)ccc4F)ncc3C)c2n1 [Example 147, 2-(6-fluoro-7-(3′-fluoro-5,6′-dimethyl-2,2′-bipyridin-4-ylamino)-2H-pyrazolo[4,3-b]pyridin-2-yl)-N-methylacetamide]
18 | – | 200 nM | 1000 nM | – | – | CNC(=O)Cn1ncc2ncc(F)c(Nc3cc(-c4nc(C)ccc4F)ncc3C)c21 [Example 148, 2-(6-fluoro-7-(3′-fluoro-5,6′-dimethyl-2,2′-bipyridin-4-ylamino)-1H-pyrazolo[4,3-b]pyridin-1-yl)-N-methylacetamide]
19 | – | 6.31 nM | 79.4 nM | – | – | Cc1ccc(F)c(-c2cc(Nc3ccnc4cn(C[C@H](C)O)nc34)c(C)cn2)n1 [Example 149, (S)-1-(7-(3′-fluoro-5,6′-dimethyl-2,2′-bipyridin-4-ylamino)-2H-pyrazolo[4,3-b]pyridin-2-yl)propan-2-ol]
20 | – | 7.94 nM | 158 nM | – | – | Cc1ccc(F)c(-c2cc(Nc3ccnc4cn(C[C@@H](C)O)nc34)c(C)cn2)n1 [Example 150, (R)-1-(7-(3′-fluoro-5,6′-dimethyl-2,2′-bipyridin-4-ylamino)-2H-pyrazolo[4,3-b]pyridin-2-yl)propan-2-ol]
21 | – | 6.31 nM | 63.1 nM | – | – | Cc1ccc(F)c(-c2cc(Nc3ccnc4cnn(C[C@@H](C)O)c34)c(C)cn2)n1 [Example 151, (R)-1-(7-(3′-fluoro-5,6′-dimethyl-2,2′-bipyridin-4-ylamino)-1H-pyrazolo[4,3-b]pyridin-1-yl)propan-2-ol]
22 | – | 7.94 nM | 100 nM | – | – | Cc1ccc(F)c(-c2cc(Nc3ccnc4cnn(C[C@H](C)O)c34)c(C)cn2)n1 [Example 152, (S)-1-(7-(3′-fluoro-5,6′-dimethyl-2,2′-bipyridin-4-ylamino)-1H-pyrazolo[4,3-b]pyridin-1-yl)propan-2-ol]
23 | – | 7.94 nM | 79.4 nM | – | – | CCNC(=O)Cn1ncc2nccc(Nc3cc(-c4nc(C)ccc4F)ncc3C)c21 [Example 153, N-ethyl-2-(7-(3′-fluoro-5,6′-dimethyl-2,2′-bipyridin-4-ylamino)-1H-pyrazolo[4,3-b]pyridin-1-yl)acetamide]
24 | – | 31.6 nM | 1580 nM | – | – | CCNC(=O)Cn1cc2nccc(Nc3cc(-c4nc(C)ccc4F)ncc3C)c2n1 [Example 154, N-ethyl-2-(7-(3′-fluoro-5,6′-dimethyl-2,2′-bipyridin-4-ylamino)-2H-pyrazolo[4,3-b]pyridin-2-yl)acetamide]
25 | – | 25.1 nM | 794 nM | – | – | CCNC(=O)Cn1ncc2nccc(Nc3cc(-c4cc(F)ccc4F)ncc3C)c21 [Example 155, 2-(7-(2-(2,5-difluorophenyl)-5-methylpyridin-4-ylamino)-1H-pyrazolo[4,3-b]pyridin-1-yl)-N-ethylacetamide]
26 | – | 3.16 nM | 126 nM | – | – | CCNC(=O)Cn1cc2nccc(Nc3cc(-c4cc(F)ccc4F)ncc3C)c2n1 [Example 156, 2-(7-(2-(2,5-difluorophenyl)-5-methylpyridin-4-ylamino)-2H-pyrazolo[4,3-b]pyridin-2-yl)-N-ethylacetamide]
27 | – | 25.1 nM | 398 nM | – | – | Cc1ccc(F)c(-c2cc(Nc3ccnc4cnn(C5CCS(=O)(=O)C5)c34)c(C)cn2)n1 (stereo not drawn) [Example 157, N-[1-(1,1-dioxidotetrahydrothiophen-3-yl)-1H-pyrazolo[4,3-b]pyridin-7-yl]-3′-fluoro-5,6′-dimethyl-2,2′-bipyridin-4-amine]
28 | – | 6.31 nM | 126 nM | – | – | CNC(=O)Cn1cc2nccc(Nc3cc(-c4cc(F)ccc4F)ncc3C)c2n1 [Example 158, 2-(7-(2-(2,5-difluorophenyl)-5-methylpyridin-4-ylamino)-2H-pyrazolo[4,3-b]pyridin-2-yl)-N-methylacetamide]
29 | – | – | – | 6.6 | 6.6 | N-(2-(5-chloro-2-fluorophenyl)pyridin-4-yl)-2-(2-methoxyethyl)-2H-pyrazolo[4,3-b]pyridin-7-amine and N-(2-(5-chloro-2-fluorophenyl)pyridin-4-yl)-1-(2-methoxyethyl)-2H-pyrazolo[4,3-b]pyridin-7-amine [Example 35]
